Legend:
[1] = Oven ageing of stabilized polypropylene plaques (25 mil) at 150° C., oxidative stability
Experimental: Unstabilized polypropylene powder (Hercules Profax 6501) is thoroughly blended with the indicated amount of additive. The blended materials are then milled on a two roll mill at 182° C. for 5 minutes, after which time the stabilized polypropylene is sheeted from the mill and allowed to cool. The milled polypropylene is then cut into pieces and compression molded on a hydraulic press at 220° C. and 175 psi (1.2×10^6 Pa) into 25 mil thick plaques. The plaques are then exposed to air in a force draft oven maintained at 150° C. The plaques are considered to have failed on showing the first signs of decomposition (e.g. cracking or brown edges).

[2] = Solubility in hydrocarbon solvents; type: physicochemical; details: 24° to 25° C.
Experimental: This example provides solubility data for the instant stabilizers in two hydrocarbon solvents. The indicated stabilizer is dissolved in the minimal amount of solvent at 24° to 25° C. The value range reported is percent by weight of additive in total weight of solution.

[3] = FS/BL (fluorescent sunlight/black light) exposure of polypropylene films (5 mil); details: failure = 0.5 carbonyl absorbance
Text: The samples are exposed in a fluorescent sunlight/black light chamber until failure. Failure is taken as the hours required to reach 0.5 carbonyl absorbance by infrared spectroscopy on the exposed films.

[4] = Angle to break of oven aged ABS plaques (ASTM D747); set-up: key: NB: No break; details: additive 0.225%
Experimental: This example illustrates the stabilization of acrylonitrile-butadiene-styrene (ABS) copolymer by the compounds of this invention. The testing procedure is as follows:
The antioxidant is dissolved in toluene and emulsified in water using Triton X-100 (Rohm & Haas) as a surfactant. The resultant emulsion is mixed well with ABS copolymer containing 40% butadiene (rubber). Steam coagulation of the emulsion/latex mixture yields 40% rubber stabilized ABS crumbs which are then dried at 80° C. for 30 minutes in a fluidized bed drier. The resultant crumbs are combined with styrene-acrylonitrile pellets on a two roll mill for six minutes. The resultant 15% rubber containing ABS milled sheet is compression molded at 400° F. into 60 mil plaques which are die cut into 1"×3" specimens. The sample plaques are then oven aged at 150° C. and the angle to break is monitored (ASTM D747). This consists of applying a set load through an angle with one stationary point and one moveable point, flexing the sample. The angle is monitored for several aging periods until the specimen breaks.

[5] = Oxidation stability of polypropylene stretched tapes (2 mil) in forced draft oven at 115° C.; details: additive 0.2%
Experimental: The oxidation stability of milled polypropylene samples (prepared as in Examples 9 and 10), containing the indicated stabilizers, is measured on stretched tapes of 2 mil thickness on exposure to air in a forced draft oven at 115° C.

[6] = additive 0.2%, no co-stabilizer

Question: With “Para-[2-(carbododecyloxy)ethyl]hydroxycalix[n]arene [Example 3]” as the substance, how does the “Oxidative Stability Time to Failure” value ([1]; additive 0.1% with 0.3% DLTDP) read?
Answer: 420 h

Question: What about the “Oxidative Stability Time to Failure” value [1, 6] of the same substance?
Answer: 150 h

Question: What about the “wt/wt % Solubility in Toluene” value [2] of the same substance?
Answer: > 50 wt/wt %

Question: And the “FS/BL Test Results (Hours to Failure)” value ([3]; additive 0.2% by weight)?
Answer: 230 h

Question: For “Para-carbododecyloxyhydroxy-calix(n)arene [Example 5]”, which “Oxidative Stability Time to Failure” value ([1]; additive 0.1% with 0.3% DSTDP) is on record?
Answer: 210 h

Question: And the “Oxidative Stability Time to Failure” value [1, 6]?
Answer: 30 h

Question: Which “Oxidative Stability Time to Failure” value ([1]; additive 0.1% with 0.3% DLTDP) does the source give for “Para-[2(carbooctadecyloxy)ethyl]hydroxycalix[n]arene [Example 4]” here?
Answer: 340 h

Question: What about the “Oxidative Stability Time to Failure” value ([1]; additive 0.3%, no co-stabilizer) of the same substance?
Answer: 150 h

Question: What about the “FS/BL Test Results (Hours to Failure)” value ([3]; additive 0.3% by weight) of the same substance?
Answer: 240 h

Question: What about the “Angle to Break (Oven Aged Samples)” value ([4]; 0 Min at 150° C.) of the same substance?
Answer: NB

Question: And the “Angle to Break (Oven Aged Samples)” value ([4]; 30 Min at 150° C.)?
Answer: NB

Question: And the “Angle to Break (Oven Aged Samples)” value ([4]; 45 Min at 150° C.)?
Answer: NB

Question: And the “Angle to Break (Oven Aged Samples)” value ([4]; 60 Min at 150° C.)?
Answer: NB

Question: What about the “Angle to Break (Oven Aged Samples)” value ([4]; 120 Min at 150° C.) of the same substance?
Answer: 55

Question: For “Para-carbooctadecyloxy-hydroxycalix(n)arene [Example 7]”, which “Oxidative Stability Time to Failure” value ([1]; additive 0.1% with 0.3% DSTDP) is on record?
Answer: 250 h

Question: What about the “Oxidative Stability Time to Failure” value [1, 6] of the same substance?
Answer: 30 h

Question: What about the “Oxidative Stability Time to Failure” value [5] of the same substance?
Answer: 290 h

Question: What does the source list for “Para-carbobutoxy-hydroxycalix(n)arene [Example 8]”?
Answer: Oxidative Stability Time to Failure ([1]; additive 0.1% with 0.3% DSTDP): 210 h; Oxidative Stability Time to Failure [1, 6]: 20 h
